Data from publication PMC3790851, “Improved Mass Spectrometry Assay For Plasma Hepcidin: Detection and Characterization of a Novel Hepcidin Isoform” (PLoS ONE, 2013).
Bridge positions count the residues as written; N and C are the ends. Peptide text beside a SMILES is read from it.

Legend:
[1] = Stability of hepcidin in plasma/serum at room temperature (WCX-TOF MS); type: in vitro ADME, human; conditions: for Hepcidin level after one week at RT / Hepcidin level after one day at RT: % of fresh sample, human heparin plasma, 19 IC patients + 5 controls, results <1.0 nM removed, WCX-TOF MS, hepcidin-25^+40 internal standard, n = 24/15/13/18/11; for Hepcidin level after one week at RT: CV (Hep-25/-24/-22/-20/Total) 23/29/29/38/17; for Hepcidin level after one day at RT: CV (Hep-25/-24/-22/-20/Total) 8/21/14/25/5; for Hepcidin level after one week at RT, without protease inhibitors / Hepcidin level after one day at RT, without protease inhibitors: results <1 nM excluded; for Hepcidin level after one week at RT, without protease inhibitors: CV (Hep-25/-24/-22/-20) 30/31/23/41; for Hepcidin level after one day at RT, without protease inhibitors: CV (Hep-25/-24/-22/-20) 13/20/11/11; for remaining at 168 h / remaining at 1 day: human; for remaining at 168 h: read-out: Hepcidin level after one week at RT, with protease inhibitors; for remaining at 1 day: read-out: Hepcidin level after one day at RT, with protease inhibitors
Protocol: Spectra were analyzed by using Bruker Daltonics FlexAnalysis software.
To assess the stability of hepcidin in serum and plasma matrices, we kept samples from intensive care patients (n = 20) and healthy controls (n = 5) at room temperature for 0–7 days followed by WCX-TOF MS analysis using the hepcidin-25^+40 internal standard. […] For the samples at day 1 and day 7, the mean decrease in hepcidin-25 for the 5 controls and 20 intensive care patients was 90% (CV, 8% ) and 55% (CV, 23%), respectively (Table 3).

[2] = average, % of fresh, 10 IC patients and 5 controls, n = 15/8/6/9, hepcidin-20 unreliable (additional peak); for Hepcidin level after one week at -20°C, EDTA plasma: CV (Hep-25/-24/-22/-20) 11/12/11/28
Protocol: (§1) Samples were used for measurement of hepcidin between 4–7 hrs after blood drawing and/or pooled and/or stored in aliquots at various temperatures for prolonged periods of time.
(§2) Fresh samples were measured within 2–4 hrs hours after blood drawing and stored in aliquots at various temperatures for prolonged incubation.
(§3) Mass-to-charge (m/z) spectra were generated by using MALDI-TOF MS (Microflex LT, Bruker Daltonics). Spectra were analyzed by using Bruker Daltonics FlexAnalysis software. […] Total hepcidin concentration was defined as the sum of hepcidin-25, -24, -22, and -20 concentrations.
(§4) Using the novel heavy hepcidin-25 internal standard, we assessed changes in hepcidin-25 and the smaller isoforms in various samples containing various anticoagulants ex vivo at room temperature (RT), 4°C, −20°C and −80°C. More specifically, changes in hepcidin concentrations relative to those found in freshly collected samples were determined i) at storage at RT and 4°C on day 0 (fresh samples), 1 (14–22 hrs), 2, 3, and 7 days after sampling/storage, ii) at −20°C after 1 week, and after 1, 4 and 6 months of storage and iii) at −80°C at after 6 months of storage.

[3] = in vitro; conditions: human
Protocol: as §1, §2, §3, §4

[4] = target: T1, green fluorescent protein (GFP)-fused human ferroportin (Homo sapiens, UniProt Q9NP59); assay: Hepcidin bioactivity assay: GFP-ferroportin internalization and degradation; type: cell-based; conditions: for potency as inducer of ferroportin degradation: synthetic peptides, compared with hepcidin-25
T1 construct: expressed in transfected cells
T1 sequence (Q9NP59 1-571): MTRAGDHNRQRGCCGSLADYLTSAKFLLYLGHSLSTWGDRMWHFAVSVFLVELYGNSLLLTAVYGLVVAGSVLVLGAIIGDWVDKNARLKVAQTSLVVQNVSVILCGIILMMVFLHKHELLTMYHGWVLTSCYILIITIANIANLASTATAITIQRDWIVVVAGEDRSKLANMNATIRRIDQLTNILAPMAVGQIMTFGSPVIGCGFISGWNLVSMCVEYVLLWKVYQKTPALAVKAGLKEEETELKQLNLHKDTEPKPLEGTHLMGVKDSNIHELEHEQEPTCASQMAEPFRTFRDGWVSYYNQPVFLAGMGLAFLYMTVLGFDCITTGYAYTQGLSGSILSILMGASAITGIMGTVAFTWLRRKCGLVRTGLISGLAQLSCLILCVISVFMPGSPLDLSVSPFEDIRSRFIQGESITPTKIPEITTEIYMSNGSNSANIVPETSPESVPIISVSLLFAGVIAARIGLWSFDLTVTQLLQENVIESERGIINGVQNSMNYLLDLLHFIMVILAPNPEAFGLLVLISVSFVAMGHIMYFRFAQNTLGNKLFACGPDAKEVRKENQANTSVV
Text: A stable cell line engineered for inducible expression of green fluorescent protein (GFP)-fused human ferroportin was used as a test system to determine hepcidin-24 activity relative to hepcidin-25, 22 and 20. In this cell system, ferroportin internalization and degradation provided a means to quantify hepcidin activity. The assay was implemented basically as described by Nemeth et al., [33] except that fluorescence was quantified in triplicate wells on a microplate reader. To determine EC50 values for hepcidin-25 and hepcidin-24, a curve was fitted by nonlinear regression with a four parameter logistic equation using Prism v5 (GraphPad).
Figure 5 Hepcidin-mediated ferroportin internalization. Different concentrations of synthetic hepcidin-25, -24, -22 and -20 (indicated in nM on the horizontal axis) were added to the growth medium of a stable cell line that expresses green fluorescent protein-fused ferroportin (GFP-FPN). Hepcidin-mediated GFP-FPN internalization and degradation was quantified by measuring cellular fluorescence levels in arbitrary units.

[5] = average, % of fresh, 10 IC patients and 5 controls; for Hepcidin level after one day at 4°C, EDTA plasma: CV (Hep-25/-24/-22/-20) 11/6/11/22
Protocol: as §1, §2, §3, §4

[6] = in vitro; conditions: human; remark: listed apart in the source
Protocol: as §1, §2, §3, §4

[7] = average, % of fresh, 7 days, heparin plasma, 10 IC patients, n = 10/8/7/8
[8] = average, % of fresh, heparin plasma, 10 IC patients, n = 10/8/7/8
[9] = average, % of fresh, 7 days, heparin plasma, 10 IC patients, Complete Mini (Roche), CV (Hep-25/-24/-22/-20) 25/35/9/25, n = 10/8/7/8
[10] = average, % of fresh, heparin plasma, 10 IC patients, Complete Mini (Roche), 1 tablet in 200 µL PBS, 20 µL per 1 ml plasma, CV (Hep-25/-24/-22/-20) 8/30/4/14, n = 10/8/7/8
[11] = results <1.0 nM deleted, n = 15/8/6/9
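Wherever Hepcidin level after one month at -20°C, EDTA plasma is given: hepcidin in stored plasma or serum quantified by MALDI-TOF MS against a heavy hepcidin-25 internal standard, expressed relative to concentrations in freshly collected samples.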
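Wherever Hepcidin level after one week at -20°C, EDTA plasma is given: hepcidin in stored plasma or serum quantified by MALDI-TOF MS against a heavy hepcidin-25 internal standard, expressed relative to concentrations in freshly collected samples.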

Structure (SMILES) | Hepcidin level after one week at RT ([1]; average, 7 days) [%] | Hepcidin level after one day at RT ([1]; average) [%] | Hepcidin level after one week at RT, without protease inhibitors [1, 7] [%] | Hepcidin level after one day at RT, without protease inhibitors [1, 8] [%] | remaining at 168 h [1, 9] [%] | remaining at 1 day [1, 10] [%] | Hepcidin level after one week at -20°C, EDTA plasma [2] [%] | remaining at 672 h ([3]; heparin plasma) [%] | activity relative to hepcidin-24 (fold lower) [4] | potency as inducer of ferroportin degradation [4] | Hepcidin level after one day at 4°C, EDTA plasma [5, 11] [%] | remaining at 168 h ([6]; EDTA plasma) [%] | remaining at 168 h ([6]; heparin plasma) [%] | remaining at 672 h ([3]; EDTA plasma) [%] | other results
CC[C@H](C)[C@H](N)C(=O)N[C@H]1CSSC[C@@H](C(=O)N[C@@H](CCCCN)C(=O)N[C@H](C(=O)O)[C@@H](C)O)NC(=O)[C@@H]2CSSC[C@H](NC(=O)[C@H](Cc3ccccc3)NC(=O)[C@H]([C@@H](C)CC)NC1=O)C(=O)N[C@H]1CSSC[C@H](NC(=O)[C@H](CCCCN)NC(=O)[C@H](CO)NC(=O)[C@H](CCCNC(=N)N)NC(=O)[C@H](Cc3c[nH]cn3)NC(=O)[C@@H]3CSSC[C@H](NC(=O)CNC1=O)C(=O)N3)C(=O)NCC(=O)N[C@@H](CCSC)C(=O)N2 [Hepcidin-20] (H-ICIFCCGCCHRSKCGMCCKT-OH; disulfide 2-18, 5-17, 6-14, 8-9 (inferred); N-terminus and C-terminus assumed) | 138 | 115 | 164 | 141 | 114 | 118 | 183 | 102 | at least 10 fold | significantly less potent inducer of ferroportin degradation than hepcidin-25 | 94 | – | – | – | level of isoform emerging in control samples at RT ([1]; heparin plasma, healthy controls, 0–7 days): below 1 nM; Hepcidin level after one month at -20°C, EDTA plasma ([2]; 4 weeks, CV (Hep-25/-24/-22/-20) 9/11/19/40): 210%; Hepcidin level after one week at 4°C, heparin plasma ([5]; 7 days, CV (Hep-25/-24/-22/-20) 5/8/8/21, n = 15/7/6/10): 114%; Hepcidin level after one week at 4°C, EDTA plasma ([5]; 7 days, CV (Hep-25/-24/-22/-20) 9/8/18/21, n = 15/8/6/9, hepcidin-20 in stored EDTA plasma unreliable (additional peak)): 165%
CC[C@H](C)[C@@H]1NC(=O)[C@@H](NC(=O)[C@@H](NC(=O)[C@@H]2CCCN2C(=O)[C@@H](N)Cc2ccccc2)[C@@H](C)CC)CSSC[C@@H](C(=O)N[C@@H](CCCCN)C(=O)N[C@H](C(=O)O)[C@@H](C)O)NC(=O)[C@@H]2CSSC[C@H](NC(=O)[C@H](Cc3ccccc3)NC1=O)C(=O)N[C@H]1CSSC[C@H](NC(=O)[C@H](CCCCN)NC(=O)[C@H](CO)NC(=O)[C@H](CCCNC(=N)N)NC(=O)[C@H](Cc3c[nH]cn3)NC(=O)[C@@H]3CSSC[C@H](NC(=O)CNC1=O)C(=O)N3)C(=O)NCC(=O)N[C@@H](CCSC)C(=O)N2 [Hepcidin-22] (H-FPICIFCCGCCHRSKCGMCCKT-OH; disulfide 4-20, 7-19, 8-16, 10-11) | 150 | 127 | 160 | 135 | 117 | 105 | – | 89 | at least 10 fold | significantly less potent inducer of ferroportin degradation than hepcidin-25 | 104 | 106 | 96 | 96 | remaining at 1 week ([3]; EDTA plasma): 98%; Hepcidin level after one day at 4°C, heparin plasma ([5]; results <1.0 nM deleted, CV (Hep-25/-24/-22/-20) 7/5/13/20, n = 15/7/6/10): 104%
CC[C@H](C)[C@@H]1NC(=O)[C@@H](NC(=O)[C@@H](NC(=O)[C@@H]2CCCN2C(=O)[C@H](Cc2ccccc2)NC(=O)[C@H](Cc2c[nH]cn2)NC(=O)[C@@H](N)[C@@H](C)O)[C@@H](C)CC)CSSC[C@@H](C(=O)N[C@@H](CCCCN)C(=O)N[C@H](C(=O)O)[C@@H](C)O)NC(=O)[C@@H]2CSSC[C@H](NC(=O)[C@H](Cc3ccccc3)NC1=O)C(=O)N[C@H]1CSSC[C@H](NC(=O)[C@H](CCCCN)NC(=O)[C@H](CO)NC(=O)[C@H](CCCNC(=N)N)NC(=O)[C@H](Cc3c[nH]cn3)NC(=O)[C@@H]3CSSC[C@H](NC(=O)CNC1=O)C(=O)N3)C(=O)NCC(=O)N[C@@H](CCSC)C(=O)N2 [Hepcidin-24] (H-THFPICIFCCGCCHRSKCGMCCKT-OH; disulfide 6-22, 9-21, 10-18, 12-13) | 104 | 120 | 116 | 128 | – | – | 96 | 114 | – | significantly less potent inducer of ferroportin degradation than hepcidin-25 | – | 113 | 106 | 91 | Hepcidin level after one week at RT, with protease inhibitors [1, 9]: 133%; Hepcidin level after one day at RT, with protease inhibitors [1, 10]: 122%; EC50 [4]: 192 nM; activity relative to hepcidin-25 (fold lower) ([4]; relative to hepcidin-25): 10 fold
